Experimental data: US20090156477A1, “Compositions and Methods for Regulating Inflammatory Responses” (Massachusetts Institute of Technology, priority 2005, published 2009)

Tests used:
Assay type in all cases: cell-based, human
Wnt1 = assay: RT-PCR expression in Caco-2 cells after FGF treatment: Wnt1; settings: normalized to PBS treatment, defined as 1.0
From the text: (§1) Five μg of total RNA was isolated from Caco-2 cells using Trizol reagent (Life Tech, Rockville, Md.) followed by reverse transcription with random hexamers. Specific oligomers were designed based on published sequences in order to detect the expression of specific human Wnt, Fz and syndecan isoforms. Sequences of primer pairs were as follows: Wnt-1: 5′-CACGACCTCGTCTACTTCGAC-3′ (SEQ ID NO: 17) and 5′-ACAGACACTCGTGCAGTACGC-3′ (SEQ ID NO: 18); Wnt-2: 5′-CATGGTGGTACATGAGAGCTAC-3′ (SEQ ID NO: 19) and 5′-GGCAAATACAACTCCAGCTGAG-3′ (SEQ ID NO: 20); Wnt-3: 5′-GAGAGCCTCCCCGTCCACAG-3′ (SEQ ID NO: 21) and 5′-CTGCCAGGAGTGTATTCGCATC-3′ (SEQ ID NO: 22); Wnt-3a: 5′-CAGGAACTACGTGGAGATCATG-3′ (SEQ ID NO: 23) and 5′-CCATCCCACCAAACTCGATGTC-3′ (SEQ ID NO: 24); Fz-1: 5′-GAACTTTCCTCCAACTTCATGGC-3′ (SEQ ID NO: 25) and 5′-CATTTCCATTTTACAGACCGG-3′ (SEQ ID NO: 26); Fz-2: 5′-GGTGAGCCAGCACTGCAAGAG-3′ (SEQ ID NO: 27) and 5′-CCTAAAAGTGAAATGGTTTCGATCG-3′ (SEQ ID NO: 28); Fz-10: 5′-ACACGTCCAACGCCAGCATG-3′ (SEQ ID NO: 29) and 5′-ACGAGTCATGTTGTAGCCGATG-3′ (SEQ ID NO: 30); and Syndecan-1/Sdc-1/CD138: 5′-CTTCACACTCCCCACACAGA-3′ (SEQ ID NO: 31) and 5′-TCCTGTTTGGTGGGCTTCTG-3′ (SEQ ID NO: 32). To control for total cell […], RT-PCR was also performed on β-actin using the primers 5′-GCCAGCTCACCATGGATGATGATAT-3′ (SEQ ID NO: 33) and 5′-GCTTGCTGATCCACATCTGCTGGAA-3′ (SEQ ID NO: 34). PCR was performed using the Advantage-GC cDNA kit from Clontech as per manufacturer's instructions (Palo Alto, Calif.).

Wnt3 = assay: RT-PCR expression in Caco-2 cells after FGF treatment: Wnt3; settings: normalized to PBS treatment, defined as 1.0
From the text: as §1

Fz1 = assay: RT-PCR expression in Caco-2 cells after FGF treatment: Fz1; settings: normalized to PBS treatment, defined as 1.0
From the text: as §1

syndecan-1 = assay: Immunohistochemistry for syndecan-1 in Caco-2 cells; settings: for syndecan-1 localization, one hour after treatment: 1 hour; for syndecan-1 distribution after 24 hours: compared to FGF1 treated cells
Method: (§2) Caco-2 cells were grown to just prior to confluency on collagen IV coated glass slides. Cells were treated with PBS, FGF1, FGF2 and FGF7, and were incubated at 37° C. in a 5% CO2 humidified incubator for 1 hour, 4 hours, 24 hours or 48 hours, as noted. Cells were washed with PBS, fixed with 3.7% formalin for 10 minutes and washed again with PBS. Cells were treated with 0.1% Triton x-100 for 5 minutes to extract lipids. Cells were washed with PBS and preincubated with PBS supplemented with 1% bovine serum albumin. Primary antibodies were added for 4 hours at room temperature, and cells were washed with PBS. Primary antibodies used were as follows: rabbit anti-human ZO-1 (1:160; Zymed Laboratories, San Francisco, Calif.); mouse anti-human syndecan-1 (1:300; Santa Cruz Biotechnology); goat anti-human Fz-1 (1:125; Santa Cruz Biotechnology); rabbit anti-human caveolin-1 (1:250; Santa Cruz Biotechnology); goat anti-human glypican-1 (1:100; Santa Cruz Biotechnology); mouse anti-human E-cadherin (1:250; Zymed Laboratories); rabbit anti-human β-catenin (1:125; Cell Signaling Technology, Beverly, Mass.); and rabbit anti-human phospho-β-catenin (Ser33/37/Thr41; 1:125; Cell Signaling Technology, Beverly, Mass.).
Cells were then treated with secondary antibodies, Texas Red-labeled phalloidin (Molecular Probes, Eugene, Oreg.) or FLAER-FL1 (1:400; Protox Biotech, Victoria, BC, Canada) as appropriate for 1 hour in the dark at room temperature. Secondary antibodies used were as follows: FITC-labeled chicken anti-rabbit (for ZO-1; 1:100; Molecular Probes, Eugene, Oreg.); Texas Red-labeled goat-anti mouse (for syndecan-1; 1:400; Molecular Probes); FITC-labeled donkey anti-mouse (for syndecan-1; 1:400; Molecular Probes, Eugene, Oreg.); FITC-labeled rabbit anti-mouse (for syndecan-1 and E-cadherin; 1:500; Molecular Probes, Eugene, Oreg.); Texas Red-labeled rabbit anti-goat (for Fz-1; 1:200; Jackson ImmunoResearch Laboratories, West Grove, Pa.); Texas Red-labeled goat anti-rabbit (for caveolin-1, β-catenin and phospho-β-catenin; 1:500; Molecular Probes); and Texas Red-labeled donkey anti-goat (for glypican-1; 1:80; Research Diagnostics, Flanders, N.J.).
(§3) Cells, except those stained with phalloidin, were washed with PBS and stained with diamidino-2-phenylindole (DAPI) for 5 minutes at room temperature (Molecular Probes). Controls of no antibody, primary antibody only, and secondary antibody only were performed. Cells were examined by confocal microscopy (ZO-1 and phalloidin only), or by fluorescence microscopy. A Nikon HB10101AF fluorescence microscope was used and images were captured at room temperature using a Hitachi HVC20 camera and Scion image acquisition software. Images were processed using Adobe Photoshop 7.0 and Adobe Illustrator 10.0.

β-catenin = assay: Immunohistochemistry for β-catenin in Caco-2 cells; settings: compared to PBS treatment
Method: as §2
Cells were then treated with secondary antibodies, Texas Red-labeled phalloidin (Molecular Probes, Eugene, Oreg.) or FLAER-FL1 (1:400; Protox Biotech, Victoria, BC, Canada) as appropriate for 1 hour in the dark at room temperature. […]
as §3, with “Controls of no antibody, primary antibody only, and secondary antibody only were performed.” left out, “Images were processed using Adobe Photoshop 7.0 and Adobe Illustrator 10.0.” left out

Row | Molecule | Wnt1 expression (intensity of RT-PCR images) (Wnt1) | Wnt3 expression (intensity of RT-PCR images) (Wnt3) | Fz1 expression (intensity of RT-PCR images) (Fz1) | syndecan-1 localization, one hour after treatment (syndecan-1) | cytoplasmic β-catenin after 24 hours (β-catenin) | syndecan-1 distribution after 24 hours (syndecan-1)
1 | FGF1: Recombinant human FGF1 from Amgen | 2.2 | 1.3 | 1.5 | seen to a lesser amount | potentially reduced levels of cytoplasmic β-catenin | 
2 | FGF2: Recombinant human FGF2, produced as described | 2.7 | 1.3 | 1.1 | primarily localized around the nucleus | induced markedly increased cytoplasmic β-catenin | moderately enhanced cytoplasmic and membrane-associated distribution of syndecan-1
3 | FGF7: Recombinant human FGF7 from Sigma (protein, UniProt P21781 32-194, looked up) Fibroblast growth factor 7: CNDMTPEQMATNVNCSSPERHTRSYDYMEGGDIRVRRLFCRTQWYLRIDKRGKVKGTQEMKNNYNIMEIRTVAVGIVAIKGVESEFYLAMNKEGKLYAKKECNEDCNFKELILENHYNTYASAKWTHNGGEMFVALNQKGIPVRGKKTKKEQKTAHFLPMAIT | 5.1 | 1.2 | 2.4 | primarily localized around the nucleus | induced markedly increased cytoplasmic β-catenin | moderately enhanced cytoplasmic and membrane-associated distribution of syndecan-1
